We go through eleven molecules from patent publication US20250339569A1, “CARBONIC ANHYDRASE IX LIGANDS” (priority 2021, published 2025).

SMILES strings stand for the structures. Starred links: 1 amine or outer side, 2 acyl side, 3 side chain; linkers in the order of their positions; H or OH if unused. Positions of bridges follow the written chain, without caps; N, C: chain ends. Non-standard residues stand in square brackets, D forms with d. Residues, ends and D or L forms follow the SMILES beside them. *: point of attachment. DOTA = O=C(O)CN1CCN(CC(=O)O)CCN(CC(=O)*)CCN(CC(=O)O)CC1; X66 = NC(=O)CCC(=O)Nc1cccc(C[C@H](N[*:1])C(=O)[*:2])c1; X68 = CC1(C(=O)Nc2cccc(C[C@H](N[*:1])C(=O)[*:2])c2)CC1; X43 = CCC(=O)Nc1cccc(C[C@H](N[*:1])C(=O)[*:2])c1; Phe(4-tBu) = CC(C)(C)c1ccc(C[C@H](N)C(=O)O)cc1; Trp(7-aza) = N[C@@H](Cc1c[nH]c2ncccc12)C(=O)O; Phe(4-NH2) = Nc1ccc(C[C@H](N)C(=O)O)cc1; Cyclopentanecarbonyl = O=C(C1CCCC1)*; mXylylene = c1cc(C[*:1])cc(C[*:2])c1; X2 = O=C(CN1CCC(N[*:1])CC1)[*:2]; Isonicotinoyl = O=C(c1ccncc1)*; X42 = c1ccc2cc(CN*)ccc2c1; Dap = NC[C@H](N)C(=O)O; Bz = O=C(c1ccccc1)*; X56 = O=C(c1nccs1)*

For one experiment, the target named is T1, CAIX-expressing human HT-29 colorectal cancer cells (Homo sapiens, UniProt Q16790).
T1 construct: CAIX-expressing human HT-29 colorectal cancer cells; host or cells: HT-29 human colorectal cancer cells
As to the kind of experiment: FACS binding assay (IC50 determination, competition with tracer 3BP-2776 or 3BP-4149).
Settings: not given
Summed up: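 HT-29 cells in FACS buffer (PBS, 1% FCS) at 500.000 cells/ml were exposed to compounds competing with a labelled tracer, with biotinylated compounds detected by 1 μg/mL APC-streptavidin for 30 min on ice. APC/Cy5 median fluorescence was read by flow cytometry and IC50 derived by 4PL fit.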
Background: Flow cytometry measures light scatter and fluorescence of single cells or particles in a stream.
In turn, `CC(C)C[C@@H]1NC(=O)[C@H](Cc2ccc(NC(=O)c3ccccc3)cc2)NC(=O)[C@H](CC(=O)O)NC(=O)[C@H]2CCCN2C(=O)[C@H](CCC(=O)O)NC(=O)[C@@H](NC(=O)[C@H](Cc2ccc(O)cc2)NC(=O)[C@@H](NC(=O)CN2CCC(NC(=O)CN3CCN(CC(=O)O)CCN(CC(=O)O)CCN(CC(=O)O)CC3)CC2)C(C)C)CSCc2cccc(c2)CSC[C@@H](C(N)=O)NC(=O)[C@H](CO)NC(=O)[C@H](Cc2c[nH]c3ccccc23)NC(=O)[C@H]([C@@H](C)O)NC1=O` [3BP-4171] ({DOTA}-[X2]VYCE[dP]D[Phe(4-NH2)](Bz)LTWSC-NH2; linker 4-13 via mXylylene) showed an IC50 of 0.1 to 0.794 µM.

Still in this experiment, the particulars now being: FACS binding assay, HT-29 cells, competition with tracer 3BP-2776 (10 nM, biotin-labeled), 4° C., 1 hour; read-out: pIC50 category (activity) (converted).
For the molecule `CC(C)C[C@@H]1NC(=O)[C@H](Cc2c[nH]c3ccccc23)NC(=O)[C@H](CC(=O)O)NC(=O)[C@H]2CCCN2C(=O)[C@H](CCC(=O)O)NC(=O)[C@@H](NC(=O)[C@H](Cc2ccc(O)cc2)NC(=O)[C@@H](NC(=O)CN2CCC(NC(=O)CN3CCN(CC(=O)O)CCN(CC(=O)O)CCN(CC(=O)O)CC3)CC2)C(C)C)CSCc2cccc(c2)CSC[C@@H](C(N)=O)NC(=O)[C@H](CO)NC(=O)[C@H](Cc2c[nH]c3ncccc23)NC(=O)[C@H]([C@@H](C)O)NC1=O` [3BP-4159] ({DOTA}-[X2]VYCE[dP]DWLT[Trp(7-aza)]SC-NH2; linker 4-13 via mXylylene), the IC50 was less than 0.01 µM.
For `CC(C)C[C@@H]1NC(=O)[C@H](Cc2ccc(C(C)(C)C)cc2)NC(=O)[C@H](CC(=O)O)NC(=O)[C@H]2CCCN2C(=O)[C@H](CCC(=O)O)NC(=O)[C@@H](NC(=O)[C@H](Cc2ccc(O)cc2)NC(=O)[C@@H](NC(=O)CN2CCC(NC(=O)CN3CCN(CC(=O)O)CCN(CC(=O)O)CCN(CC(=O)O)CC3)CC2)C(C)C)CSCc2cccc(c2)CSC[C@@H](C(N)=O)NC(=O)[C@H](CO)NC(=O)[C@H](Cc2c[nH]c3ccccc23)NC(=O)[C@H]([C@@H](C)O)NC1=O` [3BP-4160] ({DOTA}-[X2]VYCE[dP]D[Phe(4-tBu)]LTWSC-NH2; linker 4-13 via mXylylene), the IC50 was 0.01 to 0.0794 µM.
Still for that read-out and setting: the value for `CC(C)C[C@@H]1NC(=O)[C@H](Cc2ccc(NC(=O)C3CCCC3)cc2)NC(=O)[C@H](CC(=O)O)NC(=O)[C@H]2CCCN2C(=O)[C@H](CCC(=O)O)NC(=O)[C@@H](NC(=O)[C@H](Cc2ccc(O)cc2)NC(=O)[C@@H](NC(=O)CN2CCC(NC(=O)CN3CCN(CC(=O)O)CCN(CC(=O)O)CCN(CC(=O)O)CC3)CC2)C(C)C)CSCc2cccc(c2)CSC[C@@H](C(N)=O)NC(=O)[C@H](CO)NC(=O)[C@H](Cc2c[nH]c3ccccc23)NC(=O)[C@H]([C@@H](C)O)NC1=O` [3BP-4173] ({DOTA}-[X2]VYCE[dP]D[Phe(4-NH2)](Cyclopentanecarbonyl)LTWSC-NH2; linker 4-13 via mXylylene) was 0.01 to 0.0794 µM; that for `CC(C)C[C@@H]1NC(=O)[C@H](Cc2c[nH]c3ccccc23)NC(=O)[C@H](CC(=O)O)NC(=O)[C@H]2CCCN2C(=O)[C@H](CCC(=O)O)NC(=O)[C@@H]2CSCc3cccc(c3)CSC[C@@H](C(N)=O)NC(=O)[C@H](CCC(=O)NC[C@H](NC(=O)[C@@H](NC(=O)CN3CCC(NC(=O)CN4CCN(CC(=O)O)CCN(CC(=O)O)CCN(CC(=O)O)CC4)CC3)C(C)C)C(=O)N2)NC(=O)[C@H](Cc2c[nH]c3ccccc23)NC(=O)[C@H]([C@@H](C)O)NC1=O` [3BP-4177] ({DOTA}-[X2]V[Dap]CE[dP]DWLTWEC-NH2; lactam 3-12; linker 4-13 via mXylylene) was less than 0.01 µM; that for `CC(C)C[C@@H]1NC(=O)[C@H](Cc2ccc(NC(=O)c3nccs3)cc2)NC(=O)[C@H](CC(=O)O)NC(=O)[C@H]2CCCN2C(=O)[C@H](CCC(=O)O)NC(=O)[C@@H](NC(=O)[C@H](Cc2ccc(O)cc2)NC(=O)[C@@H](NC(=O)CN2CCC(NC(=O)CN3CCN(CC(=O)O)CCN(CC(=O)O)CCN(CC(=O)O)CC3)CC2)C(C)C)CSCc2cccc(c2)CSC[C@@H](C(N)=O)NC(=O)[C@H](CO)NC(=O)[C@H](Cc2c[nH]c3ccccc23)NC(=O)[C@H]([C@@H](C)O)NC1=O` [3BP-4180] ({DOTA}-[X2]VYCE[dP]D[Phe(4-NH2)](X56)LTWSC-NH2; linker 4-13 via mXylylene) was 0.1 to 0.794 µM.
The same measure, in the same setting: to `CC(C)C[C@@H]1NC(=O)[C@H](Cc2ccc(NC(=O)c3ccncc3)cc2)NC(=O)[C@H](CC(=O)O)NC(=O)[C@H]2CCCN2C(=O)[C@H](CCC(=O)O)NC(=O)[C@@H](NC(=O)[C@H](Cc2ccc(O)cc2)NC(=O)[C@@H](NC(=O)CN2CCC(NC(=O)CN3CCN(CC(=O)O)CCN(CC(=O)O)CCN(CC(=O)O)CC3)CC2)C(C)C)CSCc2cccc(c2)CSC[C@@H](C(N)=O)NC(=O)[C@H](CO)NC(=O)[C@H](Cc2c[nH]c3ccccc23)NC(=O)[C@H]([C@@H](C)O)NC1=O` [3BP-4183] ({DOTA}-[X2]VYCE[dP]D[Phe(4-NH2)](Isonicotinoyl)LTWSC-NH2; linker 4-13 via mXylylene) belongs 0.1 to 0.794 µM; to `CC(C)C[C@@H]1NC(=O)[C@H](Cc2c[nH]c3ccccc23)NC(=O)[C@H](CCC(=O)NCc2ccc3ccccc3c2)NC(=O)[C@H]2CCCN2C(=O)[C@H](CCC(=O)O)NC(=O)[C@@H](NC(=O)[C@H](Cc2ccc(O)cc2)NC(=O)[C@@H](NC(=O)CN2CCC(NC(=O)CN3CCN(CC(=O)O)CCN(CC(=O)O)CCN(CC(=O)O)CC3)CC2)C(C)C)CSCc2cccc(c2)CSC[C@@H](C(N)=O)NC(=O)[C@H](CO)NC(=O)[C@H](Cc2c[nH]c3ccccc23)NC(=O)[C@H]([C@@H](C)O)NC1=O` [3BP-4215, DOTA-APAc-Val-Tyr-[Cys(3MeBn)-Glu-pro-Glu(NHMe2Nph)-Trp-Leu-Thr-Trp-Ser-Cys]-NH2] ({DOTA}-[X2]VYCE[dP]E(X42)WLTWSC-NH2; linker 4-13 via mXylylene), less than 0.01 µM; to `CC(C)C[C@@H]1NC(=O)[C@H](Cc2cccc(NC(=O)C3(C)CC3)c2)NC(=O)[C@H](CC(=O)O)NC(=O)[C@H]2CCCN2C(=O)[C@H](CCC(=O)O)NC(=O)[C@@H](NC(=O)[C@H](Cc2ccc(O)cc2)NC(=O)[C@@H](NC(=O)CN2CCC(NC(=O)CN3CCN(CC(=O)O)CCN(CC(=O)O)CCN(CC(=O)O)CC3)CC2)C(C)C)CSCc2cccc(c2)CSC[C@@H](C(N)=O)NC(=O)[C@H](CO)NC(=O)[C@H](Cc2c[nH]c3ccccc23)NC(=O)[C@H]([C@@H](C)O)NC1=O` [3BP-4234] ({DOTA}-[X2]VYCE[dP]D[X68]LTWSC-NH2; linker 4-13 via mXylylene), less than 0.01 µM.
The same measure, in the same setting: the value for `CCC(=O)Nc1cccc(C[C@@H]2NC(=O)[C@H](CC(=O)O)NC(=O)[C@H]3CCCN3C(=O)[C@H](CCC(=O)O)NC(=O)[C@@H](NC(=O)[C@H](Cc3ccc(O)cc3)NC(=O)[C@@H](NC(=O)CN3CCC(NC(=O)CN4CCN(CC(=O)O)CCN(CC(=O)O)CCN(CC(=O)O)CC4)CC3)C(C)C)CSCc3cccc(c3)CSC[C@@H](C(N)=O)NC(=O)[C@H](CO)NC(=O)[C@H](Cc3c[nH]c4ccccc34)NC(=O)[C@H]([C@@H](C)O)NC(=O)[C@H](CC(C)C)NC2=O)c1` [3BP-4235] ({DOTA}-[X2]VYCE[dP]D[X43]LTWSC-NH2; linker 4-13 via mXylylene) was less than 0.01 µM; that for `CC(C)C[C@@H]1NC(=O)[C@H](Cc2cccc(NC(=O)CCC(N)=O)c2)NC(=O)[C@H](CC(=O)O)NC(=O)[C@H]2CCCN2C(=O)[C@H](CCC(=O)O)NC(=O)[C@@H](NC(=O)[C@H](Cc2ccc(O)cc2)NC(=O)[C@@H](NC(=O)CN2CCC(NC(=O)CN3CCN(CC(=O)O)CCN(CC(=O)O)CCN(CC(=O)O)CC3)CC2)C(C)C)CSCc2cccc(c2)CSC[C@@H](C(N)=O)NC(=O)[C@H](CO)NC(=O)[C@H](Cc2c[nH]c3ccccc23)NC(=O)[C@H]([C@@H](C)O)NC1=O` [3BP-4238] ({DOTA}-[X2]VYCE[dP]D[X66]LTWSC-NH2; linker 4-13 via mXylylene) was 0.01 to 0.0794 µM.
